{
  "source": "paper PMC3119665",
  "about": "“A New Drug Design Targeting the Adenosinergic System for Huntington's Disease” (PLoS ONE, 2011)",
  "key": {"[1]": {"system": "Calcium Channel L-Type, Phenylalkylamin.", "assay": "Radioligand binding panel (Table S1)", "parameters": "species or system rat", "conditions": "10 μM T1-11, n 2"}, "Somatostatin sst1": {"target": "T1, Somatostatin sst1 (Homo sapiens, UniProt P30872)", "T1 construct": "purchased MDS Pharma Services Taiwan", "assay": "Radioligand binding panel (Table S1)", "conditions": "10 μM T1-11, n 2"}, "Purinergic P 2Y": {"system": "Purinergic P 2Y", "assay": "Radioligand binding panel (Table S1)", "parameters": "species or system rat", "conditions": "10 μM T1-11, n 2"}, "Chemokine CCR1": {"target": "T2, Chemokine CCR1 (Homo sapiens, UniProt P32246)", "T2 construct": "purchased MDS Pharma Services Taiwan", "assay": "Radioligand binding panel (Table S1)", "conditions": "10 μM T1-11, n 2"}, "Vasopressin V1A": {"target": "T3, Vasopressin V1A (Homo sapiens, UniProt P37288)", "T3 construct": "purchased MDS Pharma Services Taiwan", "assay": "Radioligand binding panel (Table S1)", "conditions": "10 μM T1-11, n 2"}, "Phosphodiesterase PDE3": {"target": "T4, Phosphodiesterase PDE3 (Homo sapiens, UniProt Q14432)", "T4 construct": "purchased MDS Pharma Services Taiwan", "assay": "Radioligand binding panel (Table S1)", "conditions": "10 μM T1-11, n 2"}, "striatal adenosine": {"system": "striatal adenosine", "assay": "In vivo brain dialysis and adenosine measurement", "parameters": "species or system mice", "conditions": "T1-11 100 µM perfused through the dialysis probe", "method": "The level of adenosine in the brain was determined using microdialysis as previously described, [73]. In brief, concentrated dialysis probes with 4-mm dialysis membranes (CMA, Stockholm, Sweden) were used to monitor the extracellular adenosine in the striatum of rats. After inducing anesthesia with chloral hydrate ([…], IP), rats were implanted with the probe, and the coordinates for implantation were AP +1.0 mm, LM +2.8 mm, and VD −6.5 mm. Ringer's solution (140 mM NaCl, 1.2 mM CaCl2, 3.0 mM KCl, 1.0 mM MgCl2, and 0.04 mM ascorbic acid) was continuously perfused (0.5 µl/min) via probes throughout the experiments. After implantation and perfusion for 1.5 h, the perfusate was collected for 1 h as a baseline and then Ringer's solution containing T1-11 (100 µM) was perfused for another 1 h. The perfusate was analyzed by high-performance liquid chromatography (HPLC; Agilent 1100 series, Germany) coupled with a photo diode array detector (Agilent G1315B,) at 260 nm. Separations were obtained with a reversed-phase column (Cosmosil 5C18-AR-II, 250×4.6 mm, Kyoto, Japan) eluted at a flow rate of 1.0 ml/min with a linear solvent gradient elution system composed of eluents A and B (A: 0.0085% H3PO4 in H2O; B: 100% acetonitrile) according to the following profile: 0∼15 min, 100%∼90% A, 0%∼10% B."}, "[2]": {"system": "Chemokine CXCR1/2 (IL-8, Non-Selective)", "assay": "Radioligand binding panel (Table S1)", "parameters": "species or system human", "conditions": "10 μM T1-11, n 2"}, "APJ": {"target": "T5, APJ (Homo sapiens, UniProt P35414)", "T5 construct": "purchased MDS Pharma Services Taiwan", "T5 sequence (P35414 whole entry)": "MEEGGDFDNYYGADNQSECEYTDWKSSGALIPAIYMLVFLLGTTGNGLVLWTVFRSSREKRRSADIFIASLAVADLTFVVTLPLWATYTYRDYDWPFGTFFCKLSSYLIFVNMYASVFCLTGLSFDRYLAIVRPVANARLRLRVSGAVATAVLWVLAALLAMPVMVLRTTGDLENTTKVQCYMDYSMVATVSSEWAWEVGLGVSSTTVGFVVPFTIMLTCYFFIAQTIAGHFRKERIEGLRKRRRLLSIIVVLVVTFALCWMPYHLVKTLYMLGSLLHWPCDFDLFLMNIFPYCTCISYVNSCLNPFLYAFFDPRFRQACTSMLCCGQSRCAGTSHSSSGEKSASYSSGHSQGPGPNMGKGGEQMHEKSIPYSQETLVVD", "assay": "Radioligand binding panel (Table S1)", "conditions": "10 μM T1-11, n 2"}, "Galanin GAL1": {"target": "T6, Galanin GAL1 (Homo sapiens, UniProt P47211)", "T6 construct": "purchased MDS Pharma Services Taiwan", "T6 sequence (P47211 whole entry)": "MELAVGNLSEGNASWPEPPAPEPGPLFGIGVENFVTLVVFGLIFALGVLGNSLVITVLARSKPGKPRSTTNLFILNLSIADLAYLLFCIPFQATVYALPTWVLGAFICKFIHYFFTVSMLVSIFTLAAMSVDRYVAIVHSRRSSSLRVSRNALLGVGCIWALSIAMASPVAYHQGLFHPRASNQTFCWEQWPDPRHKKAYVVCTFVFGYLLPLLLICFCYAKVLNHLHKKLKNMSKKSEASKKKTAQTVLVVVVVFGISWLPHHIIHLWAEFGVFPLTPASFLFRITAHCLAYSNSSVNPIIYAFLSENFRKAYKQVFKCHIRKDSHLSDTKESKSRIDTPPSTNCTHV", "assay": "Radioligand binding panel (Table S1)", "conditions": "10 μM T1-11, n 2"}, "Phosphodiesterase PDE6": {"system": "Phosphodiesterase PDE6", "assay": "Radioligand binding panel (Table S1)", "parameters": "species or system human", "conditions": "10 μM T1-11, n 2"}, "Dopamine D5": {"target": "T7, Dopamine D5 (Homo sapiens, UniProt P21918)", "T7 construct": "purchased MDS Pharma Services Taiwan", "T7 sequence (P21918 whole entry)": "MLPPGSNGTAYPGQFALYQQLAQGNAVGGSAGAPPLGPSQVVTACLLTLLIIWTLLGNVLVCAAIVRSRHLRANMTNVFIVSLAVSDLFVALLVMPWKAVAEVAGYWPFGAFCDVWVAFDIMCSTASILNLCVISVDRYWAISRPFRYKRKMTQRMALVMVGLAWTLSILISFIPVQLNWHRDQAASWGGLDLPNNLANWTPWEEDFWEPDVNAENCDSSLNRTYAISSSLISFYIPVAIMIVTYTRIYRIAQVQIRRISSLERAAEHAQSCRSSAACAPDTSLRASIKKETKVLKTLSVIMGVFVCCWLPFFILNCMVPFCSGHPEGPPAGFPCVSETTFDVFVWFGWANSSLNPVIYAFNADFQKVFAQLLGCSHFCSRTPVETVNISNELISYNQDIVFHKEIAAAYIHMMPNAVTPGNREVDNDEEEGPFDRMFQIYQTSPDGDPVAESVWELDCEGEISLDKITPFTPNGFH", "assay": "Radioligand binding panel (Table S1)", "conditions": "10 μM T1-11, n 2"}, "[3]": {"target": "T8, Serotonin (5-Hydroxytryptamine) 5-HT1A (Homo sapiens, UniProt P08908)", "T8 construct": "purchased MDS Pharma Services Taiwan", "T8 sequence (P08908 whole entry)": "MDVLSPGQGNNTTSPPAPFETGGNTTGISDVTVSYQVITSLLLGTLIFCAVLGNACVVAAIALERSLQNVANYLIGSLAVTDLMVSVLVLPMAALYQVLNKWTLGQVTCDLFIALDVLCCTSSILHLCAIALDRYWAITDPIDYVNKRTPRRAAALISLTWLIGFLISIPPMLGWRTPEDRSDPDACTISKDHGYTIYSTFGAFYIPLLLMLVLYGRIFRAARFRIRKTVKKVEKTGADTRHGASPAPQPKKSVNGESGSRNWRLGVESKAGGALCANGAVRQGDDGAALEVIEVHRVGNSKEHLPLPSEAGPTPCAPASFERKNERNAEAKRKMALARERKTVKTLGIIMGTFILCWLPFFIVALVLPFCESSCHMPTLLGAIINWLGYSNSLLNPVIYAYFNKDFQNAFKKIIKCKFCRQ", "assay": "Radioligand binding panel (Table S1)", "conditions": "10 μM T1-11, n 2"}, "Dopamine D1": {"target": "T9, Dopamine D1 (Homo sapiens, UniProt P21728)", "T9 construct": "purchased MDS Pharma Services Taiwan", "T9 sequence (P21728 whole entry)": "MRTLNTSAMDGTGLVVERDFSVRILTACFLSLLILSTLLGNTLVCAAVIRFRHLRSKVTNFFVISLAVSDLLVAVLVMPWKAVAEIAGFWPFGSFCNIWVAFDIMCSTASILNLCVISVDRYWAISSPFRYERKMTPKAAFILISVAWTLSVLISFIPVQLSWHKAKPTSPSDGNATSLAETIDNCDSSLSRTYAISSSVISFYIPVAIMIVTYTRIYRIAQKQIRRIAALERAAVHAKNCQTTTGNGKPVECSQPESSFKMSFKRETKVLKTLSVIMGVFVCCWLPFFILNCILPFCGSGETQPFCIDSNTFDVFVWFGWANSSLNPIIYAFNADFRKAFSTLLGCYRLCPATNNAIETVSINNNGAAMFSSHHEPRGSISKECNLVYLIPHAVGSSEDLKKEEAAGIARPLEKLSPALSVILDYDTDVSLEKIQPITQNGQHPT", "assay": "Radioligand binding panel (Table S1)", "conditions": "10 μM T1-11, n 2"}, "Phosphodiesterase PDE1": {"system": "Phosphodiesterase PDE1", "assay": "Radioligand binding panel (Table S1)", "parameters": "species or system bovine", "conditions": "10 μM T1-11, n 2"}, "Chemokine CCR4": {"target": "T10, Chemokine CCR4 (Homo sapiens, UniProt P51679)", "T10 construct": "purchased MDS Pharma Services Taiwan", "T10 sequence (P51679 whole entry)": "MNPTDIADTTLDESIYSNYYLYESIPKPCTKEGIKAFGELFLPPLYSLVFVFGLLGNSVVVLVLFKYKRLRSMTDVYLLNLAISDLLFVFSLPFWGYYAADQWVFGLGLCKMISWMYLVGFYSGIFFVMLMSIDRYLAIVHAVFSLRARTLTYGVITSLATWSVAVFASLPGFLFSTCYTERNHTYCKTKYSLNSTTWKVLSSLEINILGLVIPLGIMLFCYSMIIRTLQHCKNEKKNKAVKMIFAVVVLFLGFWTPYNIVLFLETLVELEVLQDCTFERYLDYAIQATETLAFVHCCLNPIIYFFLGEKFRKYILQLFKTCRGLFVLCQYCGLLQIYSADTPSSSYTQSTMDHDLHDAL", "assay": "Radioligand binding panel (Table S1)", "conditions": "10 μM T1-11, n 2"}, "Glutamate, Kainate": {"system": "Glutamate, Kainate", "assay": "Radioligand binding panel (Table S1)", "parameters": "species or system rat", "conditions": "10 μM T1-11, n 2"}, "A2AR": {"target": "T11, A2AR (Mus musculus, UniProt Q60613)", "T11 construct": "Brain tissues were carefully removed, and homogenized in 1 ml of assay buffer; from tissue; host or cells: brain of C57BL6 mice (in vivo dosing)", "T11 sequence (Q60613 whole entry)": "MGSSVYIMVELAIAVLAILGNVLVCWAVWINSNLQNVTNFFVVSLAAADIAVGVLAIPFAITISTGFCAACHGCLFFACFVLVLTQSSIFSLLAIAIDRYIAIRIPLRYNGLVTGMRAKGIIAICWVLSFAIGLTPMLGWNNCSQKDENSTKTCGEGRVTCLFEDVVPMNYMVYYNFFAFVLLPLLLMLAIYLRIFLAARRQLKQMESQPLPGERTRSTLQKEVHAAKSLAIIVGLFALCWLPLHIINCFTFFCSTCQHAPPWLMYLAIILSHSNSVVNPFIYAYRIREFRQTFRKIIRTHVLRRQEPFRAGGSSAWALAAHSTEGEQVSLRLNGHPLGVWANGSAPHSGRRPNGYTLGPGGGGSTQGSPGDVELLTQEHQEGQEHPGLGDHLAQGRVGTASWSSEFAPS", "assay": "cAMP level in the brain after intraperitoneal injection", "format": "in vivo", "conditions": "single intraperitoneal injection 5 mg/kg body weight, 60 min, wildtype and A2AR knockout mice", "method": "C57BL6 mice (8 weeks old) were intraperitoneally (i.p.) administrated with T1-11 (5 mg/kg body weight, n = 4) or vehicle for 60 min. Brain tissues were carefully removed, and homogenized in 1 ml of assay buffer (25 mM Tris (pH 8), 1 mM EGTA, 1 mM MgCl2, […], […], 10 nM okadaic acid, 1× EDTA free proteinase inhibitor cocktail (Roche), 0.5 mM IBMX, and […]). Trichloroacetic acid (6%, final concentration) was then added to the lysate to precipitate proteins. The cAMP level in the supernatant was analyzed as previously described."}, "Transporter, Dopamine": {"target": "T12, Transporter, Dopamine (Homo sapiens, UniProt Q01959)", "T12 construct": "purchased MDS Pharma Services Taiwan", "T12 sequence (Q01959 whole entry)": "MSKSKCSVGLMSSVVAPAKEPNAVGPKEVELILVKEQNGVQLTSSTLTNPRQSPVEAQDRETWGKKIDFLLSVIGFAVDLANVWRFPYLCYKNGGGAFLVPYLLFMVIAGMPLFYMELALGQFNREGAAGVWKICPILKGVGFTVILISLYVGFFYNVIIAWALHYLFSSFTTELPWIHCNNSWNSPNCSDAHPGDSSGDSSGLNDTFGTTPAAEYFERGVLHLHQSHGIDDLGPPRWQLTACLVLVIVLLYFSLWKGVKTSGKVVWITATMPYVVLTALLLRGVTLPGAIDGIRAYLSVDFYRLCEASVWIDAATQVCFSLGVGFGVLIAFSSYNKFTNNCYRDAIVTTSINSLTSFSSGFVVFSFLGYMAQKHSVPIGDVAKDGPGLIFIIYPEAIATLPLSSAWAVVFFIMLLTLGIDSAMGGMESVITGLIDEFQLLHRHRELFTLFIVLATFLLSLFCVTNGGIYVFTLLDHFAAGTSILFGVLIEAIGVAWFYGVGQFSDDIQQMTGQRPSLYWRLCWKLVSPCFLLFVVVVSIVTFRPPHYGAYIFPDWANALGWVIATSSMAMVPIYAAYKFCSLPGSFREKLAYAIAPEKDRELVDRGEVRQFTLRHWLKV", "assay": "Radioligand binding panel (Table S1)", "conditions": "10 μM T1-11, n 2"}, "Vitamin D3": {"target": "T13, Vitamin D3 (Homo sapiens, UniProt P11473)", "T13 construct": "purchased MDS Pharma Services Taiwan", "T13 sequence (P11473 whole entry)": "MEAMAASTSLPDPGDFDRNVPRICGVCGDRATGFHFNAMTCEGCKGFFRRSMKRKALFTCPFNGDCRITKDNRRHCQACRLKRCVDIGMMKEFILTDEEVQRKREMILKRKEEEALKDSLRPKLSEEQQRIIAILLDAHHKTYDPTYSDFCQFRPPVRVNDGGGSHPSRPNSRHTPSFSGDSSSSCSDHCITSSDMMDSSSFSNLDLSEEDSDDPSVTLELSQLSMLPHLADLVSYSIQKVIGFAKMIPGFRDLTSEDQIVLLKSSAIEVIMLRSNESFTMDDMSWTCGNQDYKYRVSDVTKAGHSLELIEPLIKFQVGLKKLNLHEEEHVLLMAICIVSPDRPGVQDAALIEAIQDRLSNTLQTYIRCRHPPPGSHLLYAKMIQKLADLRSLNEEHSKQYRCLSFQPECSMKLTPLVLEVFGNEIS", "assay": "Radioligand binding panel (Table S1)", "conditions": "10 μM T1-11, n 2"}, "R6/2 mice": {"system": "R6/2 mice", "assay": "Rotarod performance of R6/2 mice", "format": "in vivo", "from_the_text": "Male R6/2 mice and littermate controls were originally obtained from Jackson Laboratories (Bar Harbor, ME, USA), and mated to female control mice (B6CBAFI/J). Offspring were identified by a polymerase chain reaction (PCR) genotyping technique of genomic DNA extracted from tail tissues using primers located in the transgene (5′-[…]-3′ and 5′-[…]- AGGAG-3′) to ensure that the number of CAG repeats remained approximately 150. In total, 211 R6/2 transgenic mice were used in this study. Animals were housed at the Institute of Biomedical Sciences Animal Care Facility under a 12-h light/dark cycle. Body weights of mice were recorded once daily. Animal experiments were performed under protocols approved by the Academia Sinica Institutional Animal Care and Utilization Committee, Taipei, Taiwan.\nMotor coordination was assessed using a rotarod apparatus (UGO BASILE, Comerio, Italy) at a constant speed (12 rpm) over the period of 2 min [75]. All mice were trained for 2 days at the age of 4 weeks to allow them to become acquainted with the rotarod apparatus. Animals were then tested three times per week from the ages of 4∼12 weeks. For each test, animals were placed in the apparatus before initiation of rotation. Latency to falling was automatically recorded. Each mouse was given three trials for a maximum of 2 min for each trial."}, "Glutamate, NMDA, Agonism": {"system": "Glutamate, NMDA, Agonism", "assay": "Radioligand binding panel (Table S1)", "parameters": "species or system rat", "conditions": "10 μM T1-11, n 2"}, "[4]": {"target": "T14, Corticotropin Releasing Factor, CRF1 (Homo sapiens, UniProt P34998)", "T14 construct": "purchased MDS Pharma Services Taiwan", "T14 sequence (P34998 24-415)": "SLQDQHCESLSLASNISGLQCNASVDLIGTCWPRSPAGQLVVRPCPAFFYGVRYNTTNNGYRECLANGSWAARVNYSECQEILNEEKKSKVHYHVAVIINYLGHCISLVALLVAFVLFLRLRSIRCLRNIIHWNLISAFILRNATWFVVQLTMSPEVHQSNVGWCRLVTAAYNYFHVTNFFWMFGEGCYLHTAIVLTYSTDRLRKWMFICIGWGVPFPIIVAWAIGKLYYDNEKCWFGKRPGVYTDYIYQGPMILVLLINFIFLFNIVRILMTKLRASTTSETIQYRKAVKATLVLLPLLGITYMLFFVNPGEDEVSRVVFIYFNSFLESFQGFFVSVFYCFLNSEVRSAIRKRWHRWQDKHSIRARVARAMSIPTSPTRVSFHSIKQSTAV", "assay": "Radioligand binding panel (Table S1)", "conditions": "10 μM T1-11, n 2"}, "Melatonin MT1": {"target": "T15, Melatonin MT1 (Homo sapiens, UniProt P48039)", "T15 construct": "purchased MDS Pharma Services Taiwan", "T15 sequence (P48039 whole entry)": "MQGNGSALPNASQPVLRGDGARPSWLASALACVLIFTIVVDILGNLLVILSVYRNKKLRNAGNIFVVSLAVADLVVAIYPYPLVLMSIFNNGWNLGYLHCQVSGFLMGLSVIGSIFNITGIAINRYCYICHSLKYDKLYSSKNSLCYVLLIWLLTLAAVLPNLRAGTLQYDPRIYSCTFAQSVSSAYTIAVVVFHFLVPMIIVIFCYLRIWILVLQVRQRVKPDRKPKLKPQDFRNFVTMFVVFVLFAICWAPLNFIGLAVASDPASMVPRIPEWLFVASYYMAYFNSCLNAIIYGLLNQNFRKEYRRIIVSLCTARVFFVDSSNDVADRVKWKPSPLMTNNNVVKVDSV", "assay": "Radioligand binding panel (Table S1)", "conditions": "10 μM T1-11, n 2"}},
  "data": [
    {"smiles": "OC[C@H]1O[C@@H](n2cnc3c(NCc4ccc(O)cc4)ncnc32)[C@H](O)[C@@H]1O", "note": "[T1-11, N ^6-(4-hydroxybenzyl)adenine riboside]", "values": [
      {"measurement": "% Inhibition", "setting": "[1]", "value": -7, "unit": "%"},
      {"measurement": "inhibition at 10 µM", "setting": "Somatostatin sst1", "value": -3, "unit": "%"},
      {"measurement": "% Inhibition", "setting": "Purinergic P 2Y", "value": 17, "unit": "%"},
      {"measurement": "inhibition at 10 µM", "setting": "Chemokine CCR1", "value": -3, "unit": "%"},
      {"measurement": "inhibition at 10 µM", "setting": "Vasopressin V1A", "value": 0, "unit": "%"},
      {"measurement": "inhibition at 10 µM", "setting": "Phosphodiesterase PDE3", "value": 0, "unit": "%"},
      {"measurement": "Level of striatal adenosine (microdialysis)", "setting": "striatal adenosine", "value": "significantly enhanced the level of striatal adenosine"},
      {"measurement": "% Inhibition", "setting": "[2]", "value": 10, "unit": "%"},
      {"measurement": "inhibition at 10 µM", "setting": "APJ", "value": 21, "unit": "%"},
      {"measurement": "inhibition at 10 µM", "setting": "Galanin GAL1", "value": 0, "unit": "%"},
      {"measurement": "% Inhibition", "setting": "Phosphodiesterase PDE6", "value": 21, "unit": "%"},
      {"measurement": "inhibition at 10 µM", "setting": "Dopamine D5", "value": 2, "unit": "%"},
      {"measurement": "inhibition at 10 µM", "setting": "[3]", "value": 9, "unit": "%"},
      {"measurement": "inhibition at 10 µM", "setting": "Dopamine D1", "value": -13, "unit": "%"},
      {"measurement": "% Inhibition", "setting": "Phosphodiesterase PDE1", "value": 26, "unit": "%"},
      {"measurement": "inhibition at 10 µM", "setting": "Chemokine CCR4", "value": 5, "unit": "%"},
      {"measurement": "% Inhibition", "setting": "Glutamate, Kainate", "value": 11, "unit": "%"},
      {"measurement": "cAMP levels in the brain", "setting": "A2AR", "value": "increased cAMP levels in the brains of wildtype, but not A2AR knockout"},
      {"measurement": "inhibition at 10 µM", "setting": "Transporter, Dopamine", "value": -6, "unit": "%"},
      {"measurement": "inhibition at 10 µM", "setting": "Vitamin D3", "value": 6, "unit": "%"},
      {"measurement": "Motor coordination (rotarod performance)", "setting": "R6/2 mice; 0.05 mg/ml in drinking water from the age of 7 weeks", "value": "counteracted the progressive deterioration in motor coordination"},
      {"measurement": "Motor deterioration (rotarod performance)", "setting": "R6/2 mice; subcutaneous Alzet minipump, 125 µg/mouse/day", "value": "improved motor deterioration"},
      {"measurement": "% Inhibition", "setting": "Glutamate, NMDA, Agonism", "value": 10, "unit": "%"},
      {"measurement": "inhibition at 10 µM", "setting": "[4]", "value": 1, "unit": "%"},
      {"measurement": "inhibition at 10 µM", "setting": "Melatonin MT1", "value": -4, "unit": "%"}
    ]}
  ]
}
